# Literature values in US20020111317A1, “Sixteen-membered macrolide compounds” (priority 2000, published 2002).
# Assays:
# wildtype ribosomes = conditions: read-out: Kd using wildtype ribosomes
# [1] = target: methylated ribosome (e.g., A2058G mutant); conditions: read-out: Kd using methylated ribosome
SMILES,Kd (wildtype ribosomes) [µM],Kd [1] [µM]
CC[C@H]1OC(=O)[C@H](C)[C@@H](O[C@H]2C[C@@](C)(OC)[C@@H](O)[C@H](C)O2)[C@H](C)[C@@H](O[C@@H]2O[C@H](C)C[C@H](N(C)C)[C@H]2O)[C@](C)(O)C[C@@H](C)C(=O)[C@H](C)[C@@H](O)[C@]1(C)O [erythromycin A],~0.014,~190
CC[C@H]1OC(=O)[C@H](C)C(=O)[C@H](C)[C@@H](O[C@@H]2O[C@H](C)C[C@H](N(C)C)[C@H]2O)[C@](C)(OC)C[C@@H](C)C(=O)[C@H](C)[C@H]2N(CCCCn3cnc(-c4cccnc4)c3)C(=O)O[C@]12C [telithromycin],~0.0013,~0.058
